Experimental findings from the supplement of paper PMC10331698 are described below.

± gives the standard deviation of the averaged measurements.

Holding throughout (assay): level (log10 ratio to DMSO vehicle control); higher = higher biomarker level / cell amount than vehicle control
Common to all, as to conditions: in DMSO

Compound in one test: NC(=O)C(F)(F)C(F)(F)C(F)(F)C(F)(F)C(F)(F)C(F)(F)C(F)(F)F [Perfluorooctanamide]
The protocol:
(§1)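 BioMAP Diversity Plus panel of 12 human primary cell co-culture systems (3C, 4H, LPS, SAg, BT, BF4T, BE3C, CASM3C, HDF3CGF, KF3CT, MyoF, Mphg). Compounds were added 1 h before stimulation and left for 24 h (MyoF 48 h; BT 72 h for soluble read-outs or 6 d for IgG). Biomarkers were read by ELISA, cytotoxicity by SRB, PBMC viability and proliferation by Alamar Blue. Each well value was divided by the mean of 8 DMSO control wells on the same plate and log10 transformed; duplicate blinded samples were tested at 4 concentrations.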

Compound in another test: O=C(O)C(F)(F)C(F)(F)C(F)(F)C(=O)O [Hexafluoroglutaric acid]
The protocol:
as §1

Compound in another test: OCC(F)(F)C(F)(F)C(F)(F)F [1H,1H-Heptafluorobutanol]
The protocol: as §1

Compound in test [1]: O=S(=O)(O)C(F)(F)C(F)(F)C(F)(F)C(F)(F)C(F)(F)C(F)(F)C(F)(F)C(F)(F)F [Potassium perfluorooctanesulfonate]
The protocol:
as §1

BT:sIL-17F: the “level (log10)” value with Perfluorooctanamide (6700 nM) is 0.0205 ± 0.0064; in the test with Perfluorooctanamide (20000 nM), -0.0165 ± 0.035; in the test with Perfluorooctanamide (60000 nM) it was -0.0955 ± 0.1; with Hexafluoroglutaric acid (6700 nM), 0.046 ± 0.071; with Hexafluoroglutaric acid (20000 nM), 0.0335 ± 0.05; with Hexafluoroglutaric acid (60000 nM), -0.004 ± 0.0085. Moreover, the “level (log10)” value with 1H,1H-Heptafluorobutanol (6700 nM) is -0.007 ± 0.035; with 1H,1H-Heptafluorobutanol (20000 nM) it was -0.0425 ± 0.29; with 1H,1H-Heptafluorobutanol (60000 nM) it was -0.0385 ± 0.032; in test [1] (6700 nM), -0.085 ± 0.037; in test [1] (20000 nM), -0.06 ± 0.11; in test [1] (60000 nM), -0.072 ± 0.037.
For BT:sTNF-alpha, the “level (log10)” value with Perfluorooctanamide (6700 nM) is -0.0175 ± 0.011; with Perfluorooctanamide (20000 nM), 0.0215 ± 0.056; in the test with Perfluorooctanamide (60000 nM), -0.129 ± 0.095; with Hexafluoroglutaric acid (6700 nM) it was 0.026 ± 0.13; with Hexafluoroglutaric acid (20000 nM) it was 0.0415 ± 0.039; in the test with Hexafluoroglutaric acid (60000 nM) it was 0.116 ± 0.039. Moreover, the “level (log10)” value with 1H,1H-Heptafluorobutanol (6700 nM) is 0.078 ± 0.055; with 1H,1H-Heptafluorobutanol (20000 nM), 0.0915 ± 0.057; in the test with 1H,1H-Heptafluorobutanol (60000 nM) it was 0.011 ± 0.083; in test [1] (6700 nM), 0.003 ± 0.076; in test [1] (20000 nM) it was 0.0225 ± 0.069; in test [1] (60000 nM), -0.039 ± 0.016.
In the case of LPS:CCL2/MCP-1, the “level (log10)” value in the test with Perfluorooctanamide (6700 nM) is -0.0295 ± 0.015; in the test with Perfluorooctanamide (20000 nM), 0.001 ± 0.0099; with Perfluorooctanamide (60000 nM), -0.0765 ± 0.012; with Hexafluoroglutaric acid (6700 nM), -0.0135 ± 0.026; with Hexafluoroglutaric acid (20000 nM), -0.012 ± 0.011; in the test with Hexafluoroglutaric acid (60000 nM) it was -0.004 ± 0.013. Moreover, the “level (log10)” value in the test with 1H,1H-Heptafluorobutanol (6700 nM) is -0.0125 ± 0.018; with 1H,1H-Heptafluorobutanol (20000 nM) it was -0.0055 ± 0.0035; in the test with 1H,1H-Heptafluorobutanol (60000 nM) it was -0.001 ± 0.017; in test [1] (6700 nM) it was 0.0025 ± 0.0021; in test [1] (20000 nM) it was 0.007 ± 0.016; in test [1] (60000 nM), 0.039 ± 0.0057.
Turning to LPS:CD40, the “level (log10)” value in the test with Perfluorooctanamide (6700 nM) is -0.034 ± 0.021; with Perfluorooctanamide (20000 nM) it was -0.015 ± 0.0057; in the test with Perfluorooctanamide (60000 nM), -0.0265 ± 0.028; with Hexafluoroglutaric acid (6700 nM), 0 ± 0.0028; with Hexafluoroglutaric acid (20000 nM), -0.0035 ± 0.035; in the test with Hexafluoroglutaric acid (60000 nM), 0.0085 ± 0.046. The “level (log10)” value with 1H,1H-Heptafluorobutanol (6700 nM) was 0.056 ± 0.023; in the test with 1H,1H-Heptafluorobutanol (20000 nM) it was 0.0345 ± 0.0064; with 1H,1H-Heptafluorobutanol (60000 nM), 0.0045 ± 0.049; in test [1] (6700 nM), -0.062 ± 0.052; in test [1] (20000 nM), -0.055 ± 0.014; in test [1] (60000 nM), -0.062 ± 0.016.
Consider LPS:CD62E/E-Selectin, for which the “level (log10)” value was -0.002 ± 0.014 with Perfluorooctanamide (6700 nM); -0.001 ± 0.011 in the test with Perfluorooctanamide (20000 nM); 0.0205 ± 0.0078 with Perfluorooctanamide (60000 nM); -0.003 ± 0.035 in the test with Hexafluoroglutaric acid (6700 nM); 0.0045 ± 0.03 with Hexafluoroglutaric acid (20000 nM); 0.004 ± 0.033 with Hexafluoroglutaric acid (60000 nM). Besides, the “level (log10)” value with 1H,1H-Heptafluorobutanol (6700 nM) is 0.0035 ± 0.013; in the test with 1H,1H-Heptafluorobutanol (20000 nM), 0.001 ± 0.013; with 1H,1H-Heptafluorobutanol (60000 nM), -0.0035 ± 0.0092; in test [1] (6700 nM), 0.0005 ± 0.037; in test [1] (20000 nM), 0.0035 ± 0.00071; in test [1] (60000 nM) it was 0.0205 ± 0.00071.
As to LPS:CD69, the “level (log10)” value was -0.0115 ± 0.086 with Perfluorooctanamide (6700 nM); 0.0295 ± 0.036 with Perfluorooctanamide (20000 nM); 0.0385 ± 0.029 in the test with Perfluorooctanamide (60000 nM); -0.003 ± 0.011 with Hexafluoroglutaric acid (6700 nM); -0.014 ± 0.0099 in the test with Hexafluoroglutaric acid (20000 nM); 0.0075 ± 0.0021 in the test with Hexafluoroglutaric acid (60000 nM). Also, the “level (log10)” value is -0.016 ± 0.021 with 1H,1H-Heptafluorobutanol (6700 nM); -0.0245 ± 0.021 in the test with 1H,1H-Heptafluorobutanol (20000 nM); -0.0075 ± 0.0035 with 1H,1H-Heptafluorobutanol (60000 nM); -0.0315 ± 0.012 in test [1] (6700 nM); -0.046 ± 0.0057 in test [1] (20000 nM); -0.0205 ± 0.039 in test [1] (60000 nM).
On to LPS:CD106/VCAM-1, for which the “level (log10)” value is -0.0025 ± 0.012 with Perfluorooctanamide (6700 nM); 0.006 ± 0.0028 with Perfluorooctanamide (20000 nM); 0.0245 ± 0.00071 with Perfluorooctanamide (60000 nM); -0.006 ± 0.016 with Hexafluoroglutaric acid (6700 nM); -0.015 ± 0.024 with Hexafluoroglutaric acid (20000 nM); -0.005 ± 0.0071 with Hexafluoroglutaric acid (60000 nM). Moreover, the “level (log10)” value was -0.0165 ± 0.0078 with 1H,1H-Heptafluorobutanol (6700 nM); 0.005 ± 0.0014 with 1H,1H-Heptafluorobutanol (20000 nM); 0.0035 ± 0.0021 with 1H,1H-Heptafluorobutanol (60000 nM); 0.0025 ± 0.019 in test [1] (6700 nM); -0.004 ± 0.016 in test [1] (20000 nM); -0.0125 ± 0.04 in test [1] (60000 nM).
